From the CheMixHub ionic liquid set

Test: xn = mol fraction of the nth substance listed
Details: 101 kPa, frequency 2 MHz

O=S(=O)([O-])C(F)(F)F.[Li+] + O=S(=O)([N-]S(=O)(=O)C(F)(F)F)C(F)(F)F.[Li+] + O
electrical conductivity [S/m]
Details | 333 K | 338.1 K | 343 K | 348.1 K | 353 K | 358.1 K
x2 = 0.001799, x1 = 0.0005943 | – | 1.57 | 1.67 | 1.77 | 1.86 | 1.942
x2 = 0.005377, x1 = 0.001799 | – | 3.913 | 4.16 | 4.39 | 4.601 | 4.79
x2 = 0.00893, x1 = 0.003054 | – | 5.77 | 6.124 | 6.46 | 6.76 | 7.029
x2 = 0.01246, x1 = 0.004127 | – | 7.28 | 7.725 | 8.142 | 8.518 | 8.846
x2 = 0.01596, x1 = 0.005377 | – | 8.517 | 9.039 | 9.522 | 9.96 | 10.33
x2 = 0.01944, x1 = 0.006623 | – | 9.534 | 10.12 | 10.7 | 11.13 | 11.5
x2 = 0.05129, x1 = 0.0177 | – | 12.8 | 13.6 | 14.26 | 14.9 | 15.41
x2 = 0.08265, x1 = 0.02921 | – | 11.3 | 12 | 12.6 | 13.18 | 13.7
x2 = 0.112, x1 = 0.04029 | – | 8.943 | 9.518 | 10.05 | 10.5 | 11
x2 = 0.1395, x1 = 0.05129 | – | 6.839 | 7.313 | 7.76 | 8.17 | 8.535
x2 = 0.1654, x1 = 0.06203 | – | 5.18 | 5.57 | 5.943 | 6.29 | 6.609
x2 = 0.1898, x1 = 0.07238 | – | 3.921 | 4.245 | 4.56 | 4.86 | 5.128
x2 = 0.2128, x1 = 0.08265 | – | 2.98 | 3.244 | 3.507 | 3.76 | 4
x2 = 0.2345, x1 = 0.0927 | – | 2.26 | 2.48 | 2.705 | 2.917 | 3.118
x2 = 0.2551, x1 = 0.1024 | 1.539 | 1.72 | 1.903 | 2.08 | 2.26 | 2.429
x2 = 0.2745, x1 = 0.112 | 1.16 | 1.303 | 1.45 | 1.6 | 1.744 | 1.88
